By pEC50 is commonly meant the negative decadic logarithm of the EC50, by convention in mol/L. A word on the pIC50: it is the IC50 on a negative log10 scale, so that one unit is a factor of ten.

What all share (type): cell-based
The target in assay [1] is T1, Integrin alpha-5/beta-1 (Homo sapiens, UniProt P05556+P08648). Put plainly: Agonist activity at alpha5beta1 integrin in human K562 cells assessed as increase of fibronectin-mediated cell adhesion at 10 ug/ml after 30 mins by fluorescence assay in presence of neutralizing antibody of beta1.
Assay [2] addresses T2, Integrin alpha-V/beta-3 (Homo sapiens, UniProt P05106+P06756). Put plainly: Agonist activity at alphavbeta3 integrin in human SK-MEL-24 cells assessed as increase of fibronectin-mediated cell adhesion at 10 ug/ml after 30 mins by fluorescence assay in presence of neutralizing antibodies of alphav.
Assay [3] deals with Integrin alpha-IIb/beta-3 (Homo sapiens) (UniProt P05106+P08514). Put plainly: Agonist activity at alpha2bbeta3 integrin in PMA-stimulated human K562 cells assessed as increase of cell adhesion after 30 mins by flow cytometry in presence of tirofiban. For orientation: Flow cytometry measures light scatter and fluorescence of single cells or particles in a stream.
The target of assay [4] is T1, Integrin alpha-5/beta-1. Nature of the assay: Agonist activity at alpha5beta1 integrin in human K562 cells assessed as increase of fibronectin-mediated cell adhesion after 30 mins by fluorescence assay.
Assay [5] concerns the target T2, Integrin alpha-V/beta-3. Nature of the assay: Agonist activity at alphavbeta3 integrin in human SK-MEL-24 cells assessed as increase of fibronectin-mediated cell adhesion after 30 mins by fluorescence assay.
For assay [6], the target named is Integrin alpha-4/beta-1 (Homo sapiens, UniProt P05556+P13612). Put plainly: Antagonist activity at alpha4beta1 integrin in human Jurkat E6.1 cells assessed as inhibition of VCAM1-mediated cell adhesion after 30 mins by fluorescence assay.
For assay [7], the target named is Integrin alpha-L/beta-2 (LFA-1) (Homo sapiens, UniProt P05107+P20701). Nature of the assay: Antagonist activity at alphaLbeta2 integrin in human Jurkat E6.1 cells assessed as inhibition of ICAM1-mediated cell adhesion after 30 mins by fluorescence assay.
Assay [8] deals with T1, Integrin alpha-5/beta-1. Put plainly: Agonist activity at alpha5beta1 integrin in human K562 cells assessed as increase of cell adhesion after 30 mins by fluorescence assay.
In assay [9] the target is T2, Integrin alpha-V/beta-3. Put plainly: Agonist activity at alphavbeta3 integrin in human SK-MEL-24 cells assessed as increase of cell adhesion after 30 mins by fluorescence assay.
The subject of assay [10] is K562. Put plainly: Selectivity ratio of EC50 for alphavbeta3 integrin in human SK-MEL-24 cells to EC50 for alpha5beta1 integrin in human K562 cells.

pEC50, pIC50: −log10 of the molar value. Active and inactive are the calls of the source. The rule behind the calls is not given here.

Chain of Integrin alpha-4/beta-1 (P05556 whole entry): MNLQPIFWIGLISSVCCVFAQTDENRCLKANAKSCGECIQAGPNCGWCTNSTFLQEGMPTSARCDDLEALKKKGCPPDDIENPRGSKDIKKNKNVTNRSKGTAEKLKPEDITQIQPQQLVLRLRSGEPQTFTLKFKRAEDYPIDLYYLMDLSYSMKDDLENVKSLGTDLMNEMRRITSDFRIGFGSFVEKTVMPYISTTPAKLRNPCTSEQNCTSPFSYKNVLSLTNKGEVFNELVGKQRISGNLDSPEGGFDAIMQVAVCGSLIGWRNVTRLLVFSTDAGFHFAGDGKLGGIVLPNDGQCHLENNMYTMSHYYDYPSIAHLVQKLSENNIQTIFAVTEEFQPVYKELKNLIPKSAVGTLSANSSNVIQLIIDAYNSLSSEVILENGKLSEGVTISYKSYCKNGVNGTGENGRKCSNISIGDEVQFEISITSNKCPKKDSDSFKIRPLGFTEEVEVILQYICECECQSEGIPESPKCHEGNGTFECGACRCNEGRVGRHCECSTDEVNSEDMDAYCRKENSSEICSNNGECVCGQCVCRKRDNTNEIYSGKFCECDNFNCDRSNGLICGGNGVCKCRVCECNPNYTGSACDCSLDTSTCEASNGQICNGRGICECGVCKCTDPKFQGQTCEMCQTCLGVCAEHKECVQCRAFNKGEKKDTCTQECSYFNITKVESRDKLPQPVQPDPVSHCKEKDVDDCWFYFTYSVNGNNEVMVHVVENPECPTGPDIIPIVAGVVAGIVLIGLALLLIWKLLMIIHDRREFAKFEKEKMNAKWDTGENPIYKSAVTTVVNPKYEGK
Chain of Integrin alpha-4/beta-1 (P13612 whole entry): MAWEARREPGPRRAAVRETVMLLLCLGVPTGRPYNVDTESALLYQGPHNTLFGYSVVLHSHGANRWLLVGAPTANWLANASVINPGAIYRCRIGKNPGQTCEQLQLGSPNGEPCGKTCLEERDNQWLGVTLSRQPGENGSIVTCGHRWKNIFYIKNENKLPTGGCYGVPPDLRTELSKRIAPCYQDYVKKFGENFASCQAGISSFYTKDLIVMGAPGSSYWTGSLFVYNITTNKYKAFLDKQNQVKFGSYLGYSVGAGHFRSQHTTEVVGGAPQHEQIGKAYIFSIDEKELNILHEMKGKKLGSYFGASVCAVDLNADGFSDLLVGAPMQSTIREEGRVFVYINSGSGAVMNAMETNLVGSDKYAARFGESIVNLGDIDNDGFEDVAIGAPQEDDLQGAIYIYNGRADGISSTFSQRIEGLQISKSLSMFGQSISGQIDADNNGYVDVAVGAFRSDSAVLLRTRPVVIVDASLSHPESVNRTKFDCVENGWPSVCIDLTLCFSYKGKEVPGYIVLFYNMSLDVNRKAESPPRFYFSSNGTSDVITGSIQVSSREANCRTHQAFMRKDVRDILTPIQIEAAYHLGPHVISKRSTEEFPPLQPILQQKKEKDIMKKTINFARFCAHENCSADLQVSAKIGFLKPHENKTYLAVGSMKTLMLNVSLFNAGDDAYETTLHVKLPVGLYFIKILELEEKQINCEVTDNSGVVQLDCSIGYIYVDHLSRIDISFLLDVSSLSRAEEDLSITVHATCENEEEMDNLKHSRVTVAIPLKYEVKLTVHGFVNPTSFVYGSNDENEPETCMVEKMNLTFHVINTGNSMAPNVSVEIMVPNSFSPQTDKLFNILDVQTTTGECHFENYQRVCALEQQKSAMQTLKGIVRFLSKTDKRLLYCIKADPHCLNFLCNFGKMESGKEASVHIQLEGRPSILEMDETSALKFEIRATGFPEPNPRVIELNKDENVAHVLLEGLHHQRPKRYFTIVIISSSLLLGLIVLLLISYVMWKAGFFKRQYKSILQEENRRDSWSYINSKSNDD
Chain of Integrin alpha-L/beta-2 (LFA-1) (P20701 whole entry): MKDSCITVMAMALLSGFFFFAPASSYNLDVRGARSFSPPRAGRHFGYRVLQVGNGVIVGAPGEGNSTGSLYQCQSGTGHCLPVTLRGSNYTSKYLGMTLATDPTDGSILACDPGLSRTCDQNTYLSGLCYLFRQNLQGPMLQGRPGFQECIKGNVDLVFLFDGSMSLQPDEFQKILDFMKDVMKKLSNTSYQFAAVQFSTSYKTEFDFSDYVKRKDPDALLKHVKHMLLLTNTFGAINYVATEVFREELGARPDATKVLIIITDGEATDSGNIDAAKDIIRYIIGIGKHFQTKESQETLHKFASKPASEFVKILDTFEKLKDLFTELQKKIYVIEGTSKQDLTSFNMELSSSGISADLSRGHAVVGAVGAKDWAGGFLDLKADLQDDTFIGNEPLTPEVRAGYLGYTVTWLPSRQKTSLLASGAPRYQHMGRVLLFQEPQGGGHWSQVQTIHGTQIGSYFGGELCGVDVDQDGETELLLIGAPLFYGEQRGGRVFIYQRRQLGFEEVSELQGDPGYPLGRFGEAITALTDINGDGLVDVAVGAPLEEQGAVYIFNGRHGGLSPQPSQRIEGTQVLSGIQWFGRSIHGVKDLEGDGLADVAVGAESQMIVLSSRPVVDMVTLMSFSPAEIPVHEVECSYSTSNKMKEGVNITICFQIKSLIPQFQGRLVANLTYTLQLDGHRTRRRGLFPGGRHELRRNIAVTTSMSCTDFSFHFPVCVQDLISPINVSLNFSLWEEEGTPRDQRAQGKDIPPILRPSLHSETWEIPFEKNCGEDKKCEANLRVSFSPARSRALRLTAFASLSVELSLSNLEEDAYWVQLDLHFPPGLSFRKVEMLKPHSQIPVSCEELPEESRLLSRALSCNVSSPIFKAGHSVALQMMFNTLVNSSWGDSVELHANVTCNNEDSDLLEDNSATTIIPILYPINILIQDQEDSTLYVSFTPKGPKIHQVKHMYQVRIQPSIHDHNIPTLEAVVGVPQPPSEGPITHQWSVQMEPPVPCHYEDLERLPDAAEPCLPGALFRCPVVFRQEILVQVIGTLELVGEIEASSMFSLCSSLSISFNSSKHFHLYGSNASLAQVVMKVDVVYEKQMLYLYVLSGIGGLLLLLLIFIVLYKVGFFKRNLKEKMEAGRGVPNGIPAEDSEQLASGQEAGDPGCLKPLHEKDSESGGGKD
Chain of Integrin alpha-L/beta-2 (LFA-1) (P05107 whole entry): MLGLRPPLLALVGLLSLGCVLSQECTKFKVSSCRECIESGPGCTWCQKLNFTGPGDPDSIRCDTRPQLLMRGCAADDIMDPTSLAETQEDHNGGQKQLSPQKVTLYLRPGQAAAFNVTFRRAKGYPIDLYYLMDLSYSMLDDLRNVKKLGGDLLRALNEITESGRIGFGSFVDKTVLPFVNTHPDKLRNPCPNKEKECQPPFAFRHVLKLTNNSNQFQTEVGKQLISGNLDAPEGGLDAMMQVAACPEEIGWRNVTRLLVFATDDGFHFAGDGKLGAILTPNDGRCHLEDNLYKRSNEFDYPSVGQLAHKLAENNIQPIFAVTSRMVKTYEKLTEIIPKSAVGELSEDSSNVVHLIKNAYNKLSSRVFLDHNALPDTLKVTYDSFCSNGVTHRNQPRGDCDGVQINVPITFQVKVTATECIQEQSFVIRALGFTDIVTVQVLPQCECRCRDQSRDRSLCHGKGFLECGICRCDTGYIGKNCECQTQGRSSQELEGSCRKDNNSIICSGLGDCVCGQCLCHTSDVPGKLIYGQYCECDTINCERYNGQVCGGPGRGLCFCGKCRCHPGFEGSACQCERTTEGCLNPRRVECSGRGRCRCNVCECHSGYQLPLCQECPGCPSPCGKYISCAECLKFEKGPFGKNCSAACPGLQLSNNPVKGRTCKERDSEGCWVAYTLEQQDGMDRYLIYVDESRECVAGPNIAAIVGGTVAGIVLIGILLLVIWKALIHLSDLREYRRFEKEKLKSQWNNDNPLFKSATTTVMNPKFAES

In the case of `NCc1ccc(NC(=O)N2C(=O)CC2CC(=O)NCC(=O)O)cc1` (stereo not drawn), the result in assay [1] and in assay [2] was inactive. For the same molecule, the outcome in [3], in assay [8] and in [9] was Active. In addition, the Activity result in assay [4] and in assay [5] was “Dose-dependent effect” each time. Further, the pEC50 is 6.12 in [4] and 7.96 in assay [5]. Further, the pIC50 in assay [6] and in [7] was not above 4.00 each time.

Take `NCc1ccc(NC(=O)N2C(=O)CC2CC(=O)O)cc1` (stereo not drawn): the result in assay [1] and in assay [2] was inactive. Further, the result in assay [3], in assay [8] and in [9] was Active. Further, the Activity entry in [4] and in assay [5] was “Dose-dependent effect” throughout. Besides, the figures for the pEC50 in assay [4] and in assay [5] were 7.92 and 7.26, respectively. In assay [10], the Ratio EC50 was 5. In addition, the pIC50 in assay [6] and in assay [7] was not above 4.00 in each case.

Turning to `NCc1ccc(NC(=O)N2C(=O)C[C@H]2C(=O)O)cc1`, the Activity result in assay [4] and in assay [5] was “Dose-dependent effect” each time. Also, the pEC50 in assay [4] is 6.44; in assay [5], 4.98. In assay [10], the Ratio EC50 was 1000.
